Laboratory results taken from patent EP2380597A1, “Cyclopeptide derivatives and uses thereof” (Technische Universität München, priority 2010, dated 2011).
*1 amine or outer side, *2 acyl side, *3 side chain or, on linkers, in order; H or OH if unused. Where a SMILES comes first, the peptide text is derived from it. Bridges are numbered along the chain shown (N, C = ends). Roman numbers before positions name the chains, in order. [ ]: non-standard residue; d: D form. The star is where a group is joined. dAla(N-(6-guanidinohexyl)) = C[C@@H](NCCCCCCNC(=N)N)C(=O)O; DOTA = O=C(O)CN1CCN(CC(=O)O)CCN(CC(=O)*)CCN(CC(=O)O)CC1; X6 = C[C@H](C(=O)[*:2])N(CCCCCCCNC(=O)c1ccc(F)cc1)[*:1]; X14 = C[C@H](C(=O)[*:2])N(CCCCCNC(=O)c1ccc(F)cc1)[*:1]; X8 = C[C@H](C(=O)[*:2])N(CCCCCCNC(=O)c1ccc(F)cc1)[*:1]; X5 = C[C@H](C(=O)[*:2])N(CCCCCCNCc1cccc2ccccc12)[*:1]; X9 = C[C@H](C(=O)[*:2])N(CCCCNC(=O)c1ccc(F)cc1)[*:1]; X4 = C[C@H](C(=O)[*:2])N(CCCCCCNCc1ccccc1)[*:1]; X1 = C[C@@H](C(=O)[*:2])N(CCCCCCNC(=N)N)[*:1]; X7 = CC(=O)NCCCCCCN([C@H](C)C(=O)[*:2])[*:1]; X3 = C[C@H](C(=O)[*:2])N(CCCCCCN[*:3])[*:1]; X10 = C[C@@H](C(=O)[*:2])N(CCCCCCN)[*:1]; X12 = C[C@H](C(=O)[*:2])N(CCCCCCN)[*:1]; X2 = C[C@H](C(=O)[*:2])N(CCCCCCCN)[*:1]; X13 = C[C@H](C(=O)[*:2])N(CCCCCN)[*:1]; 2Nal = N[C@@H](Cc1ccc2ccccc2c1)C(=O)O; Suberoyl = O=C(CCCCCCC(=O)[*:2])[*:1]; X11 = C[C@H](C(=O)[*:2])N(CCCCN)[*:1]; Adipoyl = O=C(CCCCC(=O)[*:2])[*:1]; Gly(N-(CH2)6NH2) = NCCCCCCNCC(=O)O; Suc = O=C(CCC(=O)[*:2])[*:1]

What follows are molecules tested against T1, CXCR4 receptor (Homo sapiens, UniProt P61073) (assay: Receptor binding assay (competition with 125I tracer on Jurkat cells)). Details: tracer cyclo(-D-Tyr^1 [^125I]-Arg^2-Arg^3-Nal^4-Gly^5), 2 h at room temperature, D-Ala N-hexyl series, R varied.
T1 construct: endogenous in cells; host or cells: Jurkat cells
T1 sequence (P61073 whole entry): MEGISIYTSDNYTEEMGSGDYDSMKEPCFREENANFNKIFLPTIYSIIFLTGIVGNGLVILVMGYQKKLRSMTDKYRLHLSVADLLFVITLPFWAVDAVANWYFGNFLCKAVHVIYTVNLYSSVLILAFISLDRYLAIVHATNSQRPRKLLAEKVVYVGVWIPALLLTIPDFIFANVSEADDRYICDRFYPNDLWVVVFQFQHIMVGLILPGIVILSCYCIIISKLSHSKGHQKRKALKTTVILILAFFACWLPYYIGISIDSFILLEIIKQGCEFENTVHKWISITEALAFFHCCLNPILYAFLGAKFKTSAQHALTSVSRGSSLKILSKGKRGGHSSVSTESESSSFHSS
Description: For receptor binding assays cells were resuspended in PBS/0.2 % BSA. A total of 200 µl of the suspension containing 400,000 Jurkat cells were incubated with 25 µl of the tracer solution (containing 100000cpm / 25µl, approx. 0.1 nM) and 25 µl of the diluent or the competitor at different concentrations. For determination of IC50 values, cyclo(-D-Tyr^1 [^125I]-Arg^2-Arg^3-Nal^4-Gly^5) was used as a tracer. Nonspecific binding was determined in the presence of 1 µM cold cyclo(-D-Tyr^1[^127I]-Arg^2-Arg^3-Nal^4-Gly^5). After shaking for 2 h at room temperature, the incubation was terminated by centrifugation at 2000 rpm for 5 min. Cell pellets were washed once with 400µl cold PBS followed by a second centrifugation step. Cell bound radioactivity was determined by using a gamma counter. Experiments were repeated 2-3 times in triplicates. IC50 values of the compounds were calculated by nonlinear regression using GraphPad Prism (GraphPad Prism 4.0 Software, Inc., San Diego, CA, USA). Each data point is the average of three determinations.

**Q.** Which IC50 does the source give for C[C@@H]1C(=O)N[C@@H](CCCNC(=N)N)C(=O)N[C@@H](Cc2ccc3ccccc3c2)C(=O)NCC(=O)N[C@H](Cc2ccc(O)cc2)C(=O)N1CCCCCCN [ya(Hex)RNalG] (cyclo([2Nal]G[dY][X12]R)) here?
**A.** 0.3 ± 0.2 nM

**Q.** C[C@@H]1C(=O)N[C@@H](CCCNC(=N)N)C(=O)N[C@@H](Cc2ccc3ccccc3c2)C(=O)NCC(=O)N[C@H](Cc2ccc(O)cc2)C(=O)N1CCCCCCNCc1cccc2ccccc12 [ya(Hex,1 Nap) RNalG, cyclo(-D-Tyr-(α-6-aminohexyl,1-naphthylmethyl)-D-Ala-R-Nal-G)] (cyclo([2Nal]G[dY][X5]R)) was tested. Which IC50 did it give?
**A.** 5.1 ± 1.3 nM

**Q.** For C[C@@H]1C(=O)N[C@@H](CCCNC(=N)N)C(=O)N[C@@H](Cc2ccc3ccccc3c2)C(=O)NCC(=O)N[C@H](Cc2ccc(O)cc2)C(=O)N1CCCCCCNCc1ccccc1 [ya(Hex, Bz) RNalG, cyclo(-D-Tyr-(α-6-aminohexyl, benzyl)-D-Ala-R-Nal-G)] (cyclo([2Nal]G[dY][X4]R)), which IC50 is on record?
**A.** 4.2 ± 1.4 nM

**Q.** How did the IC50 turn out when C[C@@H]1C(=O)N[C@@H](CCCNC(=N)N)C(=O)N[C@@H](Cc2ccc3ccccc3c2)C(=O)NCC(=O)N[C@H](Cc2ccc(O)cc2)C(=O)N1CCCCCCNC(=O)c1ccc(F)cc1 [ya(Hex, FBz) RNalG, cyclo(-D-Tyr-(α-6-aminohexyl, 4-fluorobenzoic acid)-D-Ala-R-Nal-G)] (cyclo([2Nal]G[dY][X8]R)) was run?
**A.** 21.4 ± 5.8 nM

**Q.** With C[C@@H]1C(=O)N[C@@H](CCCNC(=N)N)C(=O)N[C@@H](Cc2ccc3ccccc3c2)C(=O)NCC(=O)N[C@H](Cc2ccc(O)cc2)C(=O)N1CCCCCCNC(=N)N [ya(Hex, Gua) RNalG, cyclo(-D-Tyr-(α-6-guanidinohexyl)-D-Ala-R-Nal-G)] (cyclo([dY][dAla(N-(6-guanidinohexyl))]R[2Nal]G)) as the molecule, how does the IC50 read?
**A.** 0.04 ± 0.02 nM

**Q.** With CC(=O)NCCCCCCN1C(=O)[C@@H](Cc2ccc(O)cc2)NC(=O)CNC(=O)[C@H](Cc2ccc3ccccc3c2)NC(=O)[C@H](CCCNC(=N)N)NC(=O)[C@H]1C [ya(Hex,Ac) RNalG, cyclo(-D-Tyr-(α-6-aminohexyl, Ac)-D-Ala-R-Nal-G)] (cyclo([2Nal]G[dY][X7]R)) as the molecule, how does the IC50 read?
**A.** 44.1 ± 6.2 nM

**Q.** Which IC50 does the source give for C[C@@H]1C(=O)N[C@@H](CCCNC(=N)N)C(=O)N[C@@H](Cc2ccc3ccccc3c2)C(=O)NCC(=O)N[C@H](Cc2ccc(O)cc2)C(=O)N1CCCCCCNC(=O)CN1CCN(CC(=O)O)CCN(CC(=O)O)CCN(CC(=O)O)CC1 [ya(Hex,DOTA) RNalG, cyclo(-D-Tyr-(α-6-aminohexyl, DOTA)-D-Ala-R-Nal-G)] (cyclo([2Nal]G[dY][X3](DOTA)R)) here?
**A.** 509.7 ± 0.2 nM

Same assay, conditions: tracer cyclo(-D-Tyr^1 [^125I]-Arg^2-Arg^3-Nal^4-Gly^5), 2 h at room temperature, Gly analogue

**Q.** For N=C(N)NCCC[C@@H]1NC(=O)CN(CCCCCCN)C(=O)[C@@H](Cc2ccc(O)cc2)NC(=O)CNC(=O)[C@H](Cc2ccc3ccccc3c2)NC1=O [yG(Hex)RNalG, cyclo(-D-Tyr-(α-6-aminohexyl)-G-R-Nal-G)] (cyclo([2Nal]G[dY][Gly(N-(CH2)6NH2)]R)), which IC50 is on record?
**A.** 104 nM

Same assay, conditions: tracer cyclo(-D-Tyr^1 [^125I]-Arg^2-Arg^3-Nal^4-Gly^5), 2 h at room temperature, L-Ala series

**Q.** How did the IC50 turn out when C[C@H]1C(=O)N[C@@H](CCCNC(=N)N)C(=O)N[C@@H](Cc2ccc3ccccc3c2)C(=O)NCC(=O)N[C@H](Cc2ccc(O)cc2)C(=O)N1CCCCCCN [yA(Hex)RNalG] (cyclo([2Nal]G[dY][X10]R)) was run?
**A.** 94.2 ± 38 nM

**Q.** With C[C@H]1C(=O)N[C@@H](CCCNC(=N)N)C(=O)N[C@@H](Cc2ccc3ccccc3c2)C(=O)NCC(=O)N[C@H](Cc2ccc(O)cc2)C(=O)N1CCCCCCNC(=N)N [yA(Hex,Gua)RNa IG, cyclo(-D-Tyr-(α-6-guanidinohexyl)-L-Ala-R-Nal-G)] (cyclo([2Nal]G[dY][X1]R)) as the molecule, how does the IC50 read?
**A.** 4.4 ± 0.3 nM

Same assay, conditions: tracer cyclo(-D-Tyr^1 [^125I]-Arg^2-Arg^3-Nal^4-Gly^5), 2 h at room temperature, alkyl chain length n varied

**Q.** With C[C@@H]1C(=O)N[C@@H](CCCNC(=N)N)C(=O)N[C@@H](Cc2ccc3ccccc3c2)C(=O)NCC(=O)N[C@H](Cc2ccc(O)cc2)C(=O)N1CCCCN [ya(But)RNalG, cyclo(-D-Tyr-(α-4-aminobutyl)-D-Ala-R-Nal-G)] (cyclo([2Nal]G[dY][X11]R)) as the molecule, how does the IC50 read?
**A.** 0.9 ± 0.1 nM

**Q.** How did the IC50 turn out when C[C@@H]1C(=O)N[C@@H](CCCNC(=N)N)C(=O)N[C@@H](Cc2ccc3ccccc3c2)C(=O)NCC(=O)N[C@H](Cc2ccc(O)cc2)C(=O)N1CCCCNC(=O)c1ccc(F)cc1 [ya(But,FBz)RNalG, cyclo(-D-Tyr-(α-4-aminobutyl, 4-fluorobenzoic acid)-D-Ala-R-Nal-G)] (cyclo([2Nal]G[dY][X9]R)) was run?
**A.** 26 ± 5.7 nM

**Q.** With C[C@@H]1C(=O)N[C@@H](CCCNC(=N)N)C(=O)N[C@@H](Cc2ccc3ccccc3c2)C(=O)NCC(=O)N[C@H](Cc2ccc(O)cc2)C(=O)N1CCCCCCCN [ya(Hept)RNalG, cyclo(-D-Tyr-(α-7-aminoheptyl)-D-Ala-R-Nal-G)] (cyclo([2Nal]G[dY][X2]R)) as the molecule, how does the IC50 read?
**A.** 2.4 ± 0.8 nM

**Q.** C[C@@H]1C(=O)N[C@@H](CCCNC(=N)N)C(=O)N[C@@H](Cc2ccc3ccccc3c2)C(=O)NCC(=O)N[C@H](Cc2ccc(O)cc2)C(=O)N1CCCCCCCNC(=O)c1ccc(F)cc1 [ya(Hept,FBz)RNalG, cyclo(-D-Tyr-(α-7-aminoheptyl, 4-fluorobenzoic acid)-D-Ala-R-Nal-G)] (cyclo([dY][X6]R[2Nal]G)) was tested. Which IC50 did it give?
**A.** 16.5 ± 3.1 nM

**Q.** Which IC50 does the source give for C[C@@H]1C(=O)N[C@@H](CCCNC(=N)N)C(=O)N[C@@H](Cc2ccc3ccccc3c2)C(=O)NCC(=O)N[C@H](Cc2ccc(O)cc2)C(=O)N1CCCCCN [ya(Pent)RNalG, cyclo(-D-Tyr-(α-5-aminopentyl)-D-Ala-R-Nal-G)] (cyclo([2Nal]G[dY][X13]R)) here?
**A.** 1.6 ± 0.3 nM

**Q.** For C[C@@H]1C(=O)N[C@@H](CCCNC(=N)N)C(=O)N[C@@H](Cc2ccc3ccccc3c2)C(=O)NCC(=O)N[C@H](Cc2ccc(O)cc2)C(=O)N1CCCCCNC(=O)c1ccc(F)cc1 [ya(Pent, FBz)RNalG, cyclo(-D-Tyr-(α-5-aminopentyl, 4-fluorobenzoic acid)-D-Ala-R-Nal-G)] (cyclo([2Nal]G[dY][X14]R)), which IC50 is on record?
**A.** 34.2 ± 9.3 nM

Same assay, conditions: tracer cyclo(-D-Tyr^1 [^125I]-Arg^2-Arg^3-Nal^4-Gly^5), 2 h at room temperature, dimers

**Q.** For C[C@@H]1C(=O)N[C@@H](CCCNC(=N)N)C(=O)N[C@@H](Cc2ccc3ccccc3c2)C(=O)NCC(=O)N[C@H](Cc2ccc(O)cc2)C(=O)N1CCCCCCNC(=O)CCC(=O)NCCCCCCN1C(=O)[C@@H](Cc2ccc(O)cc2)NC(=O)CNC(=O)[C@H](Cc2ccc3ccccc3c2)NC(=O)[C@H](CCCNC(=N)N)NC(=O)[C@H]1C [Dimer 4, ya(Hex)RNalG butan-1,4-diacid dimer] (I: cyclo([2Nal]G[dY][X3]R) / II: cyclo([2Nal]G[dY][X3]R); linker I:4-II:4 via Suc), which IC50 is on record?
**A.** 5.5 ± 1.4 nM

**Q.** How did the IC50 turn out when C[C@@H]1C(=O)N[C@@H](CCCNC(=N)N)C(=O)N[C@@H](Cc2ccc3ccccc3c2)C(=O)NCC(=O)N[C@H](Cc2ccc(O)cc2)C(=O)N1CCCCCCNC(=O)CCCCC(=O)NCCCCCCN1C(=O)[C@@H](Cc2ccc(O)cc2)NC(=O)CNC(=O)[C@H](Cc2ccc3ccccc3c2)NC(=O)[C@H](CCCNC(=N)N)NC(=O)[C@H]1C [Dimer 6, ya(Hex)RNalG hexan-1,6-diacid dimer] (I: cyclo([2Nal]G[dY][X3]R) / II: cyclo([2Nal]G[dY][X3]R); linker I:4-II:4 via Adipoyl) was run?
**A.** 7.8 ± 3.1 nM

**Q.** How did the IC50 turn out when C[C@@H]1C(=O)N[C@@H](CCCNC(=N)N)C(=O)N[C@@H](Cc2ccc3ccccc3c2)C(=O)NCC(=O)N[C@H](Cc2ccc(O)cc2)C(=O)N1CCCCCCNC(=O)CCCCCCC(=O)NCCCCCCN1C(=O)[C@@H](Cc2ccc(O)cc2)NC(=O)CNC(=O)[C@H](Cc2ccc3ccccc3c2)NC(=O)[C@H](CCCNC(=N)N)NC(=O)[C@H]1C [Dimer 8, ya(Hex)RNalG octan-1,8-diacid dimer] (I: cyclo([2Nal]G[dY][X3]R) / II: cyclo([2Nal]G[dY][X3]R); linker I:4-II:4 via Suberoyl) was run?
**A.** 15.9 ± 10.6 nM
